Results: PubChem BioAssay AID179 (DTP/NCI, 2004)
pEC50, pIC50: −log10 of the molar value. Several values for one entry are separate records, joined by “and”; a condition that tells them apart may be missing. Equal entries are not always repeated. Activity calls are given as the source filed them.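 Rule for the calls: active = compounds giving half or more protection of infected cells from virus-caused growth loss, again on retest; inactive = the rest.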 Where a SMILES comes first, the peptide text is derived from it.

System: CEM cells HIV-1 protection, formazan growth assay
Assay: NCI AIDS Antiviral Assay
Details: for pIC50: measured here: growth of uninfected CEM cells
Outline: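 Human CEM cells, uninfected and HIV-1-infected, exposed to five drug concentrations; growth measured by soluble formazan assay and scored as percent protection from infection, with protecting compounds retested.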

| SMILES | pEC50 | pIC50 | outcome |
| --- | --- | --- | --- |
| CCOC(=O)N1CCC2(CC1)CC(=O)N(Nc1ccccc1)C2=O | < 3.70 | 4.44 | – |
| COc1ccc(S(=O)(=O)N(C)C)cc1C(=O)c1cc(S(=O)(=O)N(C)C)ccc1OC | < 5.64 | < 5.64 | – |
| CCCCCCCCCn1ccnc1NCCCCCCNc1nccn1CCCCCCCCC | < 5.14 | 5.44 | – |
| CC(C)CC(N)C(=O)NC(Cc1ccc(O)cc1)C(=O)NC(CCC(=O)O)C(=O)N1CCCC1C(=O)NC(CO)C(=O)NC(Cc1ccc(O)cc1)C(=O)NC(C)C(=O)N1CCCC1C(=O)NC(CC(N)=O)C(=O)NC(Cc1cnc[nH]1)C(=O)NC(Cc1ccccc1)C(=O)O (stereo not drawn) (H-LYEPSYAPNHF-OH; configuration not given here) | – | – | inactive |
| C=CCCC1CCCCC/C1=N\N(C)C (stereo not drawn) | < 3.70 | < 3.70 | – |
| CCc1cccc(C(C)C)c1NC(=O)C(=O)CC(=O)c1c(C)n([O-])c2ccccc2[n+]1=O | < 5.48 | < 5.48 | – |
| CC(C)(CN1CCCCC1)C(=O)CC(SCCS(=O)(=O)O)c1ccc(Br)cc1 (stereo not drawn) | < 3.37 | 5.76 | – |
| NCCCN(CCCN)CCCNCc1c2ccccc2c(CNCCCN(CCCN)CCCN)c2ccccc12 | 5.32 | 4.78 | – |
| CCOC(=O)CCC(NC(=O)c1ccc(Nc2nc3cc(C(F)(F)F)ccc3nc2-c2ccccc2)cc1)C(=O)OCC (stereo not drawn) | < 3.70 | 5.09 | – |
| O=C(/C=C\c1ccsc1)c1ccccc1 | < 3.70 | 5.49 | – |
| C/C=C(\C(=O)OC)C1CC2OC(=O)C1(C=O)C13CCNC21N(C)c1ccccc13 (stereo not drawn) | < 3.90 | 3.93 | – |
| O=S(=O)(SC1=NCCN1)c1ccccc1 | 3.98 | 3.52 | – |
| CC(C)(C)[Si](C)(C)OCC1OC(n2ccc(N)nc2=O)C(O[Si](C)(C)C(C)(C)C)C1O[Si](C)(C)C(C)(C)C (stereo not drawn) | < 3.70 | 4.99 | – |
| CC(=O)C(CCC(=O)O)(CCC(=O)O)C(C)C | < 2.99 | < 2.99 | – |
| COC(=O)C1(Cc2cccc(C)c2)Cc2c(C)cccc2C1=O (stereo not drawn) | < 3.70 | 4.49 | – |
| Cc1ccc(C2=NOC(=O)[C@@H]3CCCC[C@@H]23)cc1 | < 3.70 | 4.01 | – |
| CCC1Sc2cc(OC)cc3[nH]c(=S)n(c23)C1=O (stereo not drawn) | 3.90 | 3.83 | – |
| CC(=O)NNc1nc(C)c(C(/C=C/c2ccc(Cl)cc2)=N/NC(=O)C[N+](C)(C)C)s1 | < 4.83 | < 4.83 | – |
| CC(C)CCCC(C)[C@H]1CC[C@H]2[C@@H]3CC[C@H]4C[C@@H](CCC=C(c5cc(Cl)c(OCc6ccccc6B6OC(C)(C)C(C)(C)O6)c(C(=O)OCc6ccccc6B6OC(C)(C)C(C)(C)O6)c5)c5cc(Cl)c(OCc6ccccc6B6OC(C)(C)C(C)(C)O6)c(C(=O)OCc6ccccc6B6OC(C)(C)C(C)(C)O6)c5)CC[C@]4(C)[C@H]3CC[C@]12C (stereo partly drawn) | < 3.90 | < 3.90 | – |

| SMILES | pEC50 | pIC50 | outcome |
| --- | --- | --- | --- |
| CCc1n[nH]c(=O)n1/N=C/c1ccc(C)cc1 | < 3.70 | 3.80 | – |
| OCC12COC(c3ccccc3)N1C(c1ccccc1)OC2 (stereo not drawn) | < 3.70 | 4.95 | – |
| O=c1cc(-c2ccccc2)oc2cc(OCCCCCCCCCCOc3ccc4c(=O)cc(-c5ccccc5)oc4c3)ccc12 | < 5.77 | < 5.77 | – |
| CCCCN(CCCC)C(=N)OC | < 3.70 | 4.15 | – |
| CC(=O)OCC1OC(n2c(C)c(C)c(C)c(C#N)c2=S)C(OC(C)=O)C(OC(C)=O)C1OC(C)=O (stereo not drawn) | < 3.70 | < 3.70 | – |
| OCC(O)C(O)C(O)c1nn(-c2ccc(Cl)cc2)c2nc3cc(Cl)c(Cl)cc3nc12 (stereo not drawn) | – | – | inactive |
| COc1ccccc1N1C(=O)C2C3c4ccccc4C(OC(C)=O)(c4ccccc43)C2C1=O (stereo not drawn) | < 3.70 | < 3.70 | – |
| C=CCc1cc2c(C)cc(=O)oc2c(C)c1OC(C)=O | < 4.72 | < 4.72 | – |
| CC(C)CS(=O)(=O)/C(=C(\c1ccc(Br)cc1)S(=O)(=O)CC(C)C)c1ccc(Br)cc1 | < 5.89 | < 5.89 | – |
| Cc1[nH]c2ccccc2c1C(c1c(C)[nH]c2ccccc12)c1c(C)[nH]c2ccccc12 | 7.20 | 4.23 | – |
| CN(C)C1C(=O)C(C(N)=O)=C(O)C2(O)C(=O)C3=C(O)c4c(O)cccc4C(C)(O)C3CC12 (stereo not drawn) | < 3.25 | 4.39 and 4.97 | – |
| CCOCN1COCN=C1NC#N | < 3.31 | < 3.31 | – |
| Cc1[nH]c2ccccc2c1C1Cc2ccccc2N1C(=O)/C(C#N)=C/c1ccccc1 (stereo not drawn) | < 4.89 | 5.64 | – |
| OC(CC(O)(C(F)(F)F)C(F)(F)F)C(O)c1ccco1 (stereo not drawn) | < 3.70 | 4.23 | – |
| COc1ccc(O)c2c(=O)c3cc(O)ccc3oc12 | < 3.70 | 4.52 | – |
| Cc1c(O)ccc(N=O)c1O | < 3.70 | 3.91 | – |
| CC1=Nc2cc(N)nn2C(=O)C1 | < 3.70 | < 3.70 | – |
| O=C1NC(O)n2c(=O)[nH]c(=O)n21 (stereo not drawn) | – | – | inactive |
| CN1CCN(C(=O)CCN2c3ccccc3Sc3ccccc32)CC1 | < 3.29 | 3.93 | – |

| SMILES | pEC50 | pIC50 | outcome |
| --- | --- | --- | --- |
| CC1(C)CC(=O)C2=C(C1)NC(SSC1=C(C#N)C(c3ccc(Br)cc3)C3=C(CC(C)(C)CC3=O)N1)=C(C#N)C2c1ccc(Br)cc1 (stereo not drawn) | 4.44 | 4.28 | – |
| CCC1=CCN(c2cc(C)ccn2)OC1c1ccccc1 (stereo not drawn) | < 4.45 | < 4.45 | – |
| O=C1/C(=C/c2ccccc2)CCCC12C(c1ccccc1)N2Cc1ccccc1 (stereo not drawn) | < 3.70 | 5.13 | – |
| COc1ccccc1/C=C1\N=C(c2ccccc2)OC1=O | < 3.70 | 4.76 | – |
| CCOC(C(=O)N(C)CCN(C)CCc1ccccc1)(c1ccccc1)c1ccccc1 | < 3.70 | 4.43 | – |
| Cc1c2ccccc2nc(CSc2nc3ccccc3s2)[n+]1[O-] | 4.19 | < 3.70 | – |
| C=C1SC(=Nc2ccccc2Cl)N(C(=O)c2sc3ccccc3c2Cl)C1(C)C | < 4.60 | 4.94 | – |
| CCCC(=O)NC(Nc1ccc(S(=O)(=O)Nc2ccc(OC)nn2)cc1)(C(F)(F)F)C(F)(F)F | < 3.70 | < 3.70 | – |
| O=C1/C(=C/c2ccc([N+](=O)[O-])cc2)CCc2ccccc21 | < 5.14 | < 5.14 | – |
| Cc1cccc(Nc2ccccc2C(=O)O)c1C | < 3.70 | 3.89 | – |
| O=C1N=C(SC(SC2=NC(=O)C3(NN2)c2ccccc2-c2ccccc23)=C(SC2=NC(=O)C3(NN2)c2ccccc2-c2ccccc23)SC2=NC(=O)C3(NN2)c2ccccc2-c2ccccc23)NNC12c1ccccc1-c1ccccc12 | < 4.04 | 4.37 | – |
| N#C/C(=C\c1cc(Br)c(O)c(Br)c1)c1ccccn1 | < 3.70 | 4.50 | – |
| NCCCOc1ccc(-c2c3nc(cc4ccc([nH]4)c(-c4ccc(OCCCN)cc4)c4nc(cc5ccc2[nH]5)C=C4)C=C3)cc1 | 5.62 | 5.48 | – |
| COc1ccc(-c2nc(-c3ccc(OC)cc3)n(-c3ccccc3)n2)cc1 | < 3.70 | 4.23 | – |
| O=C(Nc1ccccc1)C1CC=C2CCC3OC(=O)C1C23 (stereo not drawn) | < 3.48 | < 3.48 | – |
| CC(C)(O)[C@@H]1CCC(C)([C@H]2[C@@H](O)CC3(C)C4CC(OC5OC(CO)C(O)C(O)C5O)C5C(C)(C)[C@@H](OC6OCC(O)C(O)C6O)CC[C@@]56C[C@@]46CC[C@]23C)O1 (stereo partly drawn) | < 3.92 | < 3.92 | – |
| CCCCC1(NN=C2CCCCC2)C(=O)N(c2ccccc2)N(c2ccccc2)C1=O | < 3.70 | 3.99 | – |
| Cc1c(C)[n+](=O)c2ccc(/C=[N+](/[O-])CCO)cc2n1[O-] | – | – | inactive |
